Source: paper PMC5589576, “Targeting the apoptotic Mcl-1-PUMA interface with a dual-acting compound” (Oncotarget, 2017)

How the values were obtained:
[1] = test system: A2780, MCF-7 and SMMC-7721; test: MTT test, three cancer cell lines together; format: cell-based; settings: on A2780, MCF-7 and SMMC-7721, range over the three lines
Procedure: (§1) (Nunc). To check the interference effects of candidate membranes. […]
(§2) Microplate Spectrophotometer with excitation wavelength (Boster). being 432 nm. The IC50 calculations were performed by Graphpad Prism 5 (Graphpad software, Inc.). Key residues discovery
(§3) Tests of candidate compounds on suppressing In the present study, key residues involved in the […]
(§4) by using site-directed mutagenesis and FPA competition
(§5) Cell lines including A2780, MCF-7 and SMMC- assays in combination. According to the results of pairwise 7721 were cultured to the logarithmic growth phase per-residue free energy decomposition, the residues in 3 ml complete media (RPMI1640 plus 10%FBS), contributing a lot to the binding of PUMA/Comp8 to 4 Mcl-1 were subjected to site-directed mutagenesis. By respectively. After adjusting their concentrations to 5×10 reference to the primers listed in Supplementary Table5, cells/ml with complete media, these cell lines were plated overlapping extension PCR was conducted to realize into 96-well, transparent, flat-bottom plates (150 μl/well), site-directed mutagenesis. After verified by gene each point was prepared in three replicates. The density sequencing, the individually mutated PCR products were of cultured cell lines was evaluated by MTT tests. When cloned into the expressing vector pET-43.1a (+). […]

[2] = test system: MCF-7 cells; test: MTT test on suppressing cancer cells, MCF-7; format: cell-based; settings: Homo sapiens, MCF7, 24h
Procedure: as §1, §2, §3, §4, §5

[3] = test system: A2780 cells; test: MTT test on suppressing cancer cells, A2780; format: cell-based; settings: Homo sapiens, 24h
Procedure: as §1, §2, §3, §4, §5

[4] = test system: DLD-1 cells infected with Ad-PUMA; test: PUMA-dependent apoptosis of DLD-1 cells infected with Ad-PUMA (Caspase-Glo 3/7); format: cell-based; settings: Homo sapiens, DLD-1, Ad-PUMA, 48h
Procedure: (§6) Tests of candidate compounds on blocking Synthesis of compound 8
(§7) PUMA-dependent apoptosis To a suspension of rhodanine (7.57 mmol) in dry Construction and validation of recombinant ethanol (10 mL), 4-Biphentlaldehyde (11.3 mmol), N-(2-Adenovirus By taking pHBAd-MCMV-GFP (Hanbio) as hydroxyethyl) piperazine (11.3 mmol), and glacial acetic vector, the construction and purification of Adenoviruses acid (0.75 mmol) were added and the resulting mixture overexpressing PUMA and PUMA-∆BH3 (PUMA was further stirred under reflux for 5-6 h. The reaction was without the BH3 domain) were performed according to completed and then cooled in an ice bath. The precipitated former reports. […]
(§8) various multiplicity of infection (MOI, 6 points, from 0 The crystal structure of Comp8 was solved by X-ray to 160) in 96-well, white, flat-bottom plates (Nunc). […] Shake gently and record the luminescence of each well on TECAN Infinite M1000 S.Y.Z., H.C., J.N.L and J.Y.L. conceived the project.
(§9) Microplate Spectrophotometer. The data were analyzed J.Y.L. and Z.T. designed the experiment. J.Y.L., Z.T., by Graphpad Prism and suitable MOI of Ad-PUMA for N.Z., X.Y.L. and C.Y.L. performed the experiments and following cell infection can be determined in this process. prepared the manuscript. […]
(§10) added to make the final compound concentrations range 2. […] The results were detected by flexible docking. […]

[5] = test system: SMMC-7721 cells; test: MTT test on suppressing cancer cells, SMMC-7721; format: cell-based; settings: Homo sapiens, 24h
Procedure: as §1, §2, §3, §4, §5

[6] = target: Mcl-1; settings: known Mcl-1 inhibitor; cited from earlier work
[7] = target: T1, Mcl-1N241A (Homo sapiens, UniProt Q07820, N260A); test: FPA competition assay, mutant Mcl-1 N241A; format: binding
T1 construct: implied by Ni2+-NTA purification from pET-43.1a(+)); made in house; host or cells: E. coli BL21
Procedure: (§11) 1 protein was induced by 0.6 mM IPTG for 20 h in the Flow cytometry condition of 20°C, 160 rpm. The strains were harvested by centrifugation (6000 rpm, 10 min, 4°C) and broken Tested cells (A2780, MCF-7 and SMMC-7721) by ultrasonication (10 s operation and 10 s stop, 5 min). were plated in 6-well plates (1×10^5 cells/well) and treated […]
(§12) All cells were detached by trypsin and washed manufacturer ’s instructions. The purified Mcl-1 was (three times) by precooled PBS. The resuspended cells analyzed by 15% SDS-PAGE and dialyzed against 10 mM were stained by Annexin V-FITC and PI in sequence PBS (pH 7.4) before being stored under −80°C for later use. before being detected by flow cytometry.
(§13) FPA competition assays The FITC labelled
(§14) BH3 peptide of Mcl-1 (FITC-Mcl-BH3, FITC-AHx-Western blot analysis […]
(§15) and used as fluorescence probe in the FPA competition A2780, MCF-7 and SMMC-7721 cells treated with assays. All assays were performed in the assay and without Comp8 were harvested, washed by precooled

[8] = target: T2, Mcl-1D237A (Homo sapiens, UniProt Q07820, D256A); test: FPA competition assay, mutant Mcl-1 D237A; format: binding
T2 construct: implied by Ni2+-NTA purification from pET-43.1a(+)); made in house; host or cells: E. coli BL21
Procedure: as §11, §12, §13, §14, §15

[9] = target: T3, Mcl-1F251A (Homo sapiens, UniProt Q07820, F270A); test: FPA competition assay, mutant Mcl-1 F251A; format: binding
T3 construct: implied by Ni2+-NTA purification from pET-43.1a(+)); made in house; host or cells: E. coli BL21
Procedure: as §11, §12, §13, §14, §15

[10] = test system: A2780, MCF-7 and SMMC-7721; test: Flow cytometry detection of apoptosis (Annexin V-FITC/PI); format: cell-based; settings: 48h; 47.42 μM for A2780 and MCF-7, 27.80 μM for SMMC-7721
Procedure: After cleared by centrifugation (12000 rpm, 30 min) and with/without the given concentration of Comp8 for 48h filtration (0.44 μm filter membrane), the lysate was purified (47.42 μM for A2780 and MCF-7, 27.80 μM for SMMC-by Ni2+-NTA sepharose gel column (7Sea) following the 7721). All cells were detached by trypsin and washed manufacturer ’s instructions. The purified Mcl-1 was (three times) by precooled PBS. The resuspended cells analyzed by 15% SDS-PAGE and dialyzed against 10 mM were stained by Annexin V-FITC and PI in sequence PBS (pH 7.4) before being stored under −80°C for later use. before being detected by flow cytometry. […]
as §1, §2, §3, §4
Cell lines including A2780, MCF-7 and SMMC- assays in combination. According to the results of pairwise 7721 were cultured to the logarithmic growth phase per-residue free energy decomposition, the residues in 3 ml complete media (RPMI1640 plus 10%FBS), contributing a lot to the binding of PUMA/Comp8 to 4 Mcl-1 were subjected to site-directed mutagenesis. […]

[11] = target: T4, Mcl-1H205A (Homo sapiens, UniProt Q07820, H224A); test: FPA competition assay, mutant Mcl-1 H205A; format: binding
T4 construct: implied by Ni2+-NTA purification from pET-43.1a(+)); made in house; host or cells: E. coli BL21
Procedure: as §11, §12, §13, §14, §15

[12] = target: T5, Mcl-1R244A (Homo sapiens, UniProt Q07820, R263A); test: FPA competition assay, mutant Mcl-1 R244A; format: binding
T5 construct: implied by Ni2+-NTA purification from pET-43.1a(+)); made in house; host or cells: E. coli BL21
Procedure: as §11, §12, §13, §14, §15

[13] = test system: Caspase-3, Cyto-c and Bcl-2 in A2780, MCF-7 and SMMC-7721 cells; test: Western blot analysis of apoptotic marker proteins; format: cell-based
Procedure: as §14
-NH2) was synthesized […]
and used as fluorescence probe in the FPA competition A2780, MCF-7 and SMMC-7721 cells treated with assays. All assays were performed in the assay and without Comp8 were harvested, washed by precooled buffer (pH 7.4) composed of 20 mM Tris, 50 mM NaCl, PBS and split by RIPA lysis buffer (Thermo) containing 3 mM DTT and 2% DMSO. The FPA competition assays PMSF (protease inhibitor). Quantified protein samples were carried out in the 96-well, black, flat-bottom plates were separated by SDS-PAGE and then transferred to NC (Nunc). To check the interference effects of candidate membranes. After being blocked for 1h, all membranes compounds on the interaction between Mcl-1 and FITC- were incubated with primary antibodies against protein Mcl-BH3, solutions containing 250 nM Mcl-1 and 250 nM Caspase (1:500, Abcam), Cyto-c (1:500, Abcam) and fluorescence probes were titrated with 250 μM selected Bcl-2 (1:500, Abcam) at 4℃ overnight. […] The emission fluorescence changes were antibodies (1:10000, Jackson) for 1 h at 37°C, the signals recorded from 480 to 540 nm by TECAN Infinite M1000 were detected with ECL western blot detection system Microplate Spectrophotometer with excitation wavelength (Boster). being 432 nm. […]

[14] = test system: HUVECs infected with Ad-PUMA; test: PUMA-induced apoptosis of HUVECs infected with Ad-PUMA (Caspase-Glo 3/7); format: cell-based; settings: low-dose, less than 12.5 μM, 48h
Procedure: as §6, §7, §8, §9, §10

[15] = target: T6, Mcl-1WT (Homo sapiens, UniProt Q07820); test: FPA competition assay, wildtype Mcl-1; format: binding; settings: FITC-Mcl-BH3 probe
T6 construct: implied by Ni2+-NTA purification from pET-43.1a(+)); made in house; host or cells: E. coli BL21
T6 sequence (Q07820 172-327): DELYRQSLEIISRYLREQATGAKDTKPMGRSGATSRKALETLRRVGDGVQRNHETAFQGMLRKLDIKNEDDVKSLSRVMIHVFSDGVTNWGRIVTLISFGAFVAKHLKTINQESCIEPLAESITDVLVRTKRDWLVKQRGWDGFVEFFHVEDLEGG

T4 sequence (Q07820 172-327 H224A): as the sequence (Q07820 172-327) above, with H53A counted along it
T2 sequence (Q07820 172-327 D256A): as the sequence (Q07820 172-327) above, with D85A counted along it
T5 sequence (Q07820 172-327 R263A): as the sequence (Q07820 172-327) above, with R92A counted along it
T3 sequence (Q07820 172-327 F270A): as the sequence (Q07820 172-327) above, with F99A counted along it
T1 sequence (Q07820 172-327 N260A): as the sequence (Q07820 172-327) above, with N89A counted along it

| Structure (SMILES) | IC50 [1] | IC50 [2] | IC50 [3] | EC50 ([4]; read-out: EC50 (action on apoptosis)) | IC50 [5] | Ki [6] | Ki [7] | Ki [8] | IC50 ([4]; read-out: IC50 (inhibition of PUMA-dependent apoptosis)) | Ki [9] | apoptotic cells (FCM) [10] | Ki [11] | Ki [12] | changes of three apoptosis indicators (WB) [13] | effect on PUMA-induced apoptosis of HUVECs [14] | Ki [15] |
| --- | --- | --- | --- | --- | --- | --- | --- | --- | --- | --- | --- | --- | --- | --- | --- | --- |
| CC1(C)CCC(c2ccc(Cl)cc2)=C(CN2CCN(c3ccc(C(=O)NS(=O)(=O)c4ccc(N[C@H](CCN5CCOCC5)CSc5ccccc5)c(S(=O)(=O)C(F)(F)F)c4)cc3)CC2)C1 [ABT-263, reference compound] | 20 to 50 µM | 32 ± 3.48 µM | 21.8 ± 1.85 µM | 2.75 ± 0.24 µM | 29.5 ± 1.36 µM |  |  |  |  |  |  |  |  |  |  |  |
| O=C(O)CSc1cc(NS(=O)(=O)c2ccc(Br)cc2)c2ccccc2c1O [UMI-77] |  |  |  |  |  | 0.49 µM |  |  |  |  |  |  |  |  |  |  |
| O=C1N=C(N2CCN(CCO)CC2)S/C1=C\c1ccc(-c2ccccc2)cc1 [Comp8] | 20 to 50 µM | 44.2 ± 2.3 µM | 47.6 ± 2.99 µM |  | 44.2 ± 2.22 µM |  | 1.95 ± 0.45 µM | 1.98 ± 0.31 µM | 38.9 ± 0.91 µM | 0.66 ± 0.13 µM | substantial increase of apoptotic cells | 1.24 ± 0.35 µM | 3.52 ± 0.59 µM | fitted well with the characteristics of apoptosis | inhibitory effect | 0.3 ± 0.04 µM |
